Experimental data: ChEMBL document CHEMBL4422618, “Translational impact of novel widely pharmacological characterized mofezolac-derived COX-1 inhibitors combined with bortezomib on human multiple myeloma cell lines viability” (Eur J Med Chem, 2019)
Active and inactive are the calls of the source. The rule behind the calls is not given here.

How the values were obtained:
Platelet = assay: Antiplatelet activity in human platelet rich plasma assessed as inhibition of arachidonic acid-induced platelet aggregation preincubated for 2 mins followed by arachidonic acid addition by turbidimetric method; format: functional, cell-based
Plasma [1] = assay: Anticoagulant activity in human platelet poor plasma assessed as activated partial thromboplastin time at 100 uM incubated for 15 mins at room temperature and subsequent incubation for 2 mins at 37 degreeC followed by cephalin addition and measured after 2 mins for every secs in presence of CaCl2; format: functional
Plasma [2] = assay: Anticoagulant activity in human platelet poor plasma assessed as prothrombin time at 100 uM incubated for 15 mins at room temperature and subsequent incubation for 2 mins at 37 degreeC followed by PBS addition and measured after 3 mins for every secs in presence of calcium thromboplastin; format: functional
[3] = Hemolytic activity in erythrocytes (unknown origin) at 100 uM after 3 hrs by spectrophotometric analysis; format: ADME, cell-based, Erythrocyte; details: read-out: Activity
[4] = Mutagenicity in Salmonella typhimurium TA97 at 500 uM by Ames test; format: toxicity; details: salmonella enterica subsp. enterica serovar typhimurium
[5] = Mutagenicity in Salmonella typhimurium TA98 at 500 uM by Ames test; format: toxicity; details: salmonella enterica subsp. enterica serovar typhimurium
[6] = Mutagenicity in Salmonella typhimurium TA100 at 500 uM by Ames test; format: toxicity; details: salmonella enterica subsp. enterica serovar typhimurium
[7] = Mutagenicity in Salmonella typhimurium TA102 at 500 uM by Ames test; format: toxicity; details: salmonella enterica subsp. enterica serovar typhimurium
[8] = Genotoxicity in Escherichia coli PQ35 at 500 uM after overnight incubation by SOS chromotest; format: toxicity
[9] = Genotoxicity in Escherichia coli PQ37 at 500 uM after overnight incubation by SOS chromotest; format: toxicity
RPMI-8226 [10] = assay: Cytotoxicity against human RPMI8226 cells assessed as reduction in cell viability at […] after 48 hrs by CCK8 assay relative to control; format: functional
NCI-H929 [11] = assay: Potentiation of bortezomib-induced cytotoxicity against human NCI-H929 cells assessed as reduction in cell viability at […] after 48 hrs in presence of bortezomib by CCK8 assay; format: functional, cell-based
NCI-H929 [12] = assay: Potentiation of bortezomib-induced cytotoxicity against human NCI-H929 cells assessed as reduction in cell viability at 42 nM after 48 hrs in presence of bortezomib by CCK8 assay; format: functional, cell-based
RPMI-8226 [13] = assay: Potentiation of bortezomib-induced cytotoxicity against human RPMI8226 cells assessed as reduction in cell viability at 1.7 uM after 48 hrs in presence of bortezomib by CCK8 assay; format: functional
NCI-H929 [14] = assay: Induction of apoptosis in human NCI-H929 cells assessed as early apoptotic cells at 1.7 uM after 48 hrs by Annexin-V/propidium iodide staining based flow cytometric method (reference value: 17.1%); format: functional
NCI-H929 [15] = assay: Induction of apoptosis in human NCI-H929 cells assessed as late apoptotic cells at 1.7 uM after 48 hrs by Annexin-V/propidium iodide staining based flow cytometric method (reference value: 0.23%); format: functional
NCI-H929 [16] = assay: Induction of apoptosis in human NCI-H929 cells assessed as necrotic cells at 1.7 uM after 48 hrs by Annexin-V/propidium iodide staining based flow cytometric method (reference value: 0.0034%); format: functional
NCI-H929 [17] = assay: Induction of apoptosis in human NCI-H929 cells assessed as viable cells at 1.7 uM after 48 hrs by Annexin-V/propidium iodide staining based flow cytometric method (reference value: 82.6%); format: functional; details: NCI-H929, 48 h, read-out: Activity
NCI-H929 [18] = assay: Induction of apoptosis in human NCI-H929 cells assessed as early apoptotic cells at 1.7 uM after 48 hrs in presence of bortezomib by Annexin-V/propidium iodide staining based flow cytometric method (reference value: 17.1%); format: functional
NCI-H929 [19] = assay: Induction of apoptosis in human NCI-H929 cells assessed as late apoptotic cells at 1.7 uM after 48 hrs in presence of bortezomib by Annexin-V/propidium iodide staining based flow cytometric method (reference value: 0.23%); format: functional
NCI-H929 [20] = assay: Induction of apoptosis in human NCI-H929 cells assessed as necrotic cells at 1.7 uM after 48 hrs in presence of bortezomib by Annexin-V/propidium iodide staining based flow cytometric method (reference value: 0.0034%); format: functional
NCI-H929 [21] = assay: Induction of apoptosis in human NCI-H929 cells assessed as viable cells at 1.7 uM after 48 hrs in presence of bortezomib by Annexin-V/propidium iodide staining based flow cytometric method (reference value: 82.6%); format: functional; details: NCI-H929, 48 h, read-out: Activity
RPMI-8226 [22] = assay: Induction of apoptosis in human RPMI8226 cells assessed as early apoptotic cells at 1.7 uM after 48 hrs in presence of bortezomib by Annexin-V/propidium iodide staining based flow cytometric method (reference value: 1.05%); format: functional
RPMI-8226 [23] = assay: Induction of apoptosis in human RPMI8226 cells assessed as late apoptotic cells at 1.7 uM after 48 hrs in presence of bortezomib by Annexin-V/propidium iodide staining based flow cytometric method (reference value: 0.21%); format: functional
RPMI-8226 [24] = assay: Induction of apoptosis in human RPMI8226 cells assessed as necrotic cells at 1.7 uM after 48 hrs in presence of bortezomib by Annexin-V/propidium iodide staining based flow cytometric method (reference value: 0.090%); format: functional
RPMI-8226 [25] = assay: Induction of apoptosis in human RPMI8226 cells assessed as viable cells at 1.7 uM after 48 hrs in presence of bortezomib by Annexin-V/propidium iodide staining based flow cytometric method (reference value: 98.7%); format: functional; details: RPMI-8226, 48 h, read-out: Activity
RPMI-8226 [26] = assay: Cell cycle arrest in human RPMI8226 cells assessed as accumulation at G0/G1 phase at 1.7 uM in presence of bortezomib after 48 hrs by propidium iodide/RNase staining based flow cytometric method relative to bortezomib; format: functional
RPMI-8226 [27] = assay: Cell cycle arrest in human RPMI8226 cells assessed as accumulation at S phase at 1.7 uM in presence of bortezomib after 48 hrs by propidium iodide/RNase staining based flow cytometric method relative to bortezomib; format: functional
RPMI-8226 [28] = assay: Cell cycle arrest in human RPMI8226 cells assessed as reduction in accumulation at G2/M phase at 1.7 uM in presence of bortezomib after 48 hrs by propidium iodide/RNase staining based flow cytometric method relative to bortezomib; format: functional
RPMI-8226 [29] = assay: Cell cycle arrest in human RPMI8226 cells assessed as accumulation at G0/G1 phase at 1.7 uM after 48 hrs by propidium iodide/RNase staining based flow cytometric method; format: functional
RPMI-8226 [30] = assay: Cell cycle arrest in human RPMI8226 cells assessed as accumulation at S phase at 1.7 uM after 48 hrs by propidium iodide/RNase staining based flow cytometric method; format: functional

SMILES: CC(=O)Oc1ccccc1C(=O)O [ASPIRIN]
- IC50 (Platelet): 1110 nM
- APTT (Plasma [1]): 50.3 s
- PT (Plasma [2]): 14.6 s
- hemolysis at 3 h, 100 µM [3]: 0%
- Activity [4]: Non-Toxic
- Activity [5]: Non-Toxic
- Activity [6]: Non-Toxic
- Activity [7]: Non-Toxic
- Activity [8]: Non-Toxic
- Activity [9]: Non-Toxic
- Activity (RPMI-8226 [10]): 7%
- Activity (NCI-H929 [11]): inactive
- Activity (NCI-H929 [12]): inactive
- Activity (RPMI-8226 [13]): 66%
- Activity (NCI-H929 [14]): 16%
- Activity (NCI-H929 [15]): 0.072%
- Activity (NCI-H929 [16]): 0.016%
- viability at 1.7 µM (NCI-H929 [17]): 83.9%
- Activity (NCI-H929 [18]): 54.6%
- Activity (NCI-H929 [19]): 0.12%
- Activity (NCI-H929 [20]): 0.026%
- viability at 1.7 µM (NCI-H929 [21]): 45.2%
- Activity (RPMI-8226 [22]): 7.95%
- Activity (RPMI-8226 [23]): 0.48%
- Activity (RPMI-8226 [24]): 0.014%
- viability at 1.7 µM (RPMI-8226 [25]): 91.6%
- Activity (RPMI-8226 [26]): Active
- Activity (RPMI-8226 [27]): Active
- Activity (RPMI-8226 [28]): Active
- Activity (RPMI-8226 [29]): inactive
- Activity (RPMI-8226 [30]): inactive
